Test results taken from PubChem BioAssay (NCI).
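1) Cells in 96-well plates. 2) Compound, 48 h, 5 concentrations. 3) Linear interpolation between surrounding doses. 4) Unreached endpoint = highest concentration. At the GI50, growth is halved. At the TGI there is no net growth.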

Tests used:
Experiment in all cases: inhibition of tumour cell growth, NCI panel, 48 h
[1] = test system: HCT-116 colon
[2] = test system: HOP-92 NSCLC
[3] = test system: SF-268 CNS
[4] = test system: NCI-H460 lung
[5] = test system: NCI-H23 lung
[6] = test system: BT-549 breast
[7] = test system: MOLT-4 leukemia
[8] = test system: RXF 393 renal
[9] = test system: SN12C renal
[10] = test system: NCI-H522 lung
[11] = test system: SR leukemia
[12] = test system: KM12 colon
[13] = test system: PC-3 prostate
[14] = test system: MCF7 breast
[15] = test system: COLO 205 colon
[16] = test system: HS 578T breast
[17] = test system: SW-620 colon
[18] = test system: U251 CNS
[19] = test system: MDA-MB-435
[20] = test system: LOX IMVI melanoma
[21] = test system: OVCAR-4 ovarian
[22] = test system: DU-145 prostate
[23] = test system: UACC-62 melanoma
[24] = test system: A498 renal
[25] = test system: TK-10 renal
[26] = test system: RPMI-8226 leukemia
[27] = test system: MALME-3M melanoma
[28] = test system: SK-MEL-28 melanoma
[29] = test system: 786-0 renal
[30] = test system: SK-OV-3 ovarian
[31] = test system: HCT-15 colon
[32] = test system: SF-539 CNS
[33] = test system: SNB-19 CNS
[34] = test system: SNB-75 CNS
[35] = test system: M14 melanoma
[36] = test system: SK-MEL-2 melanoma
[37] = test system: NCI/ADR-RES ovarian
[38] = test system: K-562 leukemia
[39] = test system: HL-60(TB) leukemia
[40] = test system: HOP-62 NSCLC
[41] = test system: NCI-H226 lung
[42] = test system: CCRF-CEM leukemia
[43] = test system: HT29 colon
[44] = test system: A549 NSCLC
[45] = test system: T-47D breast
[46] = test system: UO-31 renal
[47] = test system: SF-295 CNS
[48] = test system: MDA-MB-231 breast
[49] = test system: OVCAR-5 ovarian
[50] = test system: CAKI-1 renal
[51] = test system: HCC-2998 colon
[52] = test system: OVCAR-8 ovarian
[53] = test system: SK-MEL-5 melanoma
[54] = test system: ACHN renal
[55] = test system: IGROV1 ovarian
[56] = test system: OVCAR-3 ovarian

CNC(=O)c1c(F)cccc1Nc1nc(Nc2cc3c(cc2OC)CCN3C(=O)CN(C)C)nc2[nH]ccc12
GI50 [1]: 1.54 µM
TGI [1]: 3.33 µM
GI50 [2]: 0.0309 µM
TGI [2]: 1.6 µM
GI50 [3]: 5.44 µM
TGI [3]: 15.2 µM
GI50 [4]: 6.2 µM
TGI [4]: 30.1 µM
GI50 [5]: 13.3 µM
TGI [5]: 34 µM
GI50 [6]: 19.8 µM
TGI [6]: 48.2 µM
GI50 [7]: 3.01 µM
TGI [7]: > 24.7 µM
GI50 [8]: 1.8 µM
TGI [8]: 3.6 µM
GI50 [9]: 3.88 µM
TGI [9]: 9.81 µM
GI50 [10]: 1.56 µM
TGI [10]: 3.63 µM
GI50 [11]: 0.0203 µM
TGI [11]: > 100 µM
GI50 [12]: 2.23 µM
TGI [12]: 4.99 µM
GI50 [13]: 6.25 µM
TGI [13]: 39.9 µM
GI50 [14]: 0.359 µM
TGI [14]: 2.88 µM
GI50 [15]: 0.151 µM
TGI [15]: 3.48 µM
GI50 [16]: 17.8 µM
TGI [16]: 46.8 µM
GI50 [17]: 1.14 µM
TGI [17]: 3.42 µM
GI50 [18]: 2.39 µM
TGI [18]: 6.61 µM
GI50 [19]: 1.4 µM
TGI [19]: 3.51 µM
GI50 [20]: 2.4 µM
TGI [20]: 7.26 µM
GI50 [21]: 1.87 µM
TGI [21]: 3.99 µM
GI50 [22]: 7.37 µM
TGI [22]: 24.9 µM
GI50 [23]: 4.66 µM
TGI [23]: 9.79 µM
GI50 [24]: > 39.6 µM
TGI [24]: > 58.7 µM
GI50 [25]: 4.76 µM
TGI [25]: 11.8 µM
GI50 [26]: 4.94 µM
TGI [26]: 17.4 µM
GI50 [27]: 1.5 µM
TGI [27]: 3.13 µM
GI50 [28]: 1.57 µM
TGI [28]: 2.97 µM
GI50 [29]: 11.3 µM
TGI [29]: 33.2 µM
GI50 [30]: 11.5 µM
TGI [30]: 27.5 µM
GI50 [31]: 3.08 µM
TGI [31]: 19 µM
GI50 [32]: 4.94 µM
TGI [32]: 10.3 µM
GI50 [33]: 7.04 µM
TGI [33]: > 62.8 µM
GI50 [34]: 11.7 µM
TGI [34]: 24.7 µM
GI50 [35]: 1.64 µM
TGI [35]: 3.37 µM
GI50 [36]: 4.87 µM
TGI [36]: 19.8 µM
GI50 [37]: 9.69 µM
TGI [37]: > 61.5 µM
GI50 [38]: 2.58 µM
TGI [38]: 6.41 µM
GI50 [39]: 0.364 µM
TGI [39]: 18.2 µM
GI50 [40]: 5.5 µM
TGI [40]: 20.8 µM
GI50 [41]: 16.2 µM
TGI [41]: 43.6 µM
GI50 [42]: 2.1 µM
TGI [42]: 5.73 µM
GI50 [43]: 0.0643 µM
TGI [43]: 1.66 µM
GI50 [44]: 1.74 µM
TGI [44]: 14.4 µM
GI50 [45]: 8.19 µM
TGI [45]: 28.4 µM
GI50 [46]: 3.85 µM
TGI [46]: 12.2 µM
GI50 [47]: 19 µM
TGI [47]: 38.2 µM
GI50 [48]: 1.9 µM
TGI [48]: 4.15 µM
GI50 [49]: 4.88 µM
TGI [49]: 26.3 µM
GI50 [50]: 16.1 µM
TGI [50]: 45.7 µM
GI50 [51]: 4.42 µM
TGI [51]: 9.2 µM
GI50 [52]: 2.79 µM
TGI [52]: 8.5 µM
GI50 [53]: 5.67 µM
TGI [53]: 23.1 µM
GI50 [54]: 8.8 µM
TGI [54]: 23.1 µM
GI50 [55]: 17.5 µM
TGI [55]: 43.1 µM
GI50 [56]: 15 µM
TGI [56]: 30.8 µM
